Like-named read-outs stand apart in the source and are kept apart here. Blank lines part the entries; values can stand above or below the compound they belong to.
Legend:
human M2R = biological target: T1, human M2R (Homo sapiens, UniProt P08172); experiment: GloSensor cAMP assay (Gi-mediated cAMP inhibition); format: cell-based; details: M2, agonist, N.A. = not active; for IC50: read-out: pIC50/pEC50 (Mean ± SEM) M2 (converted)
T1 construct: expressed in transfected cells; host or cells: HEK-293T
T1 sequence (P08172 1-466): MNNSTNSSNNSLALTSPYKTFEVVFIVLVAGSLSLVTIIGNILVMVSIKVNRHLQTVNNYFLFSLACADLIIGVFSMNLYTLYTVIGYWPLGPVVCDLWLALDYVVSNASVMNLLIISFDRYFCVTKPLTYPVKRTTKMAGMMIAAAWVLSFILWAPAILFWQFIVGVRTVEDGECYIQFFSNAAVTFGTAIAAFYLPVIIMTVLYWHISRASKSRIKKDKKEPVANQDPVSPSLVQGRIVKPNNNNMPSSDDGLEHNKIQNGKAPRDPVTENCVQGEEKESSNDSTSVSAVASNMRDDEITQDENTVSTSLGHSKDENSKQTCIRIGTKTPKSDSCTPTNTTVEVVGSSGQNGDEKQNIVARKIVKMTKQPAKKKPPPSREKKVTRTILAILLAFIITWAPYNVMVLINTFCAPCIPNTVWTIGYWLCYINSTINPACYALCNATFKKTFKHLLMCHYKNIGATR
Description: To measure M2 muscarinic receptor induced (Gi-mediated) cAMP inhibition, HEK-293T cells (procured from NCCS, Pune) were co-transfected with human M2R and luciferase based cAMP biosensor (pGloSensor™-22F plasmid; Promega) using PEImax method of transfection in the ratio of 1:1. The transfected cells were incubated at 37° C. in tissue culture incubator with 5% CO2 for 14-16 hours. For GloSensor cAMP assay, after overnight incubation, media from the plate was aspirated and 100 μl of sodium luciferin solution in drug buffer (1×HBSS (pH7.4) and 20 mM HEPES) was added to the cell plates. The plates were then incubated at 37° C. in tissue culture incubator with 5% CO2 for 90 minutes. After incubation, cells were treated with 20 μl of 6× diluted standard carbamoyl choline (10000 nM to 0.01 nM) along with test compounds (in triplicates) and were incubated in a humidified tissue culture incubator at 37° C. with 5% CO2 for 10-15 minutes to get a steady state condition. Ligand incubation was followed by addition of 20 μl of 7×(70 μM) forskoline (FSK) to the plate. FSK incubation was followed by incubation at 37° C. for 10-15 minutes and measurement of luminescence per well using luminescence plate reader (BMG Labtech). The results were plotted as inhibition of FSK stimulated cAMP response (relative luminescence units) using nonlinear regression analysis by Graph-Pad prism V.

human M3R = biological target: T2, human M3R (Homo sapiens, UniProt P20309); experiment: NFAT-luciferase assay, M3; format: cell-based; set-up: IC50 activity, M3 muscarinic receptor antagonist: unit not given beside the values; details: for selectivity among muscarinic receptors (in words): M1, M3 and M5 antagonist profiling; for effectiveness relative to known drug darifenacin at M3: compared with darifenacin 8.9 pKi
T2 construct: expressed in transfected cells; host or cells: HEK-293T
Description: (§1) To measure the agonist or antagonist activity at M1, M3 and M5 muscarinic receptor, NFAT-luciferase activity was performed in HEK-293T cells (procured from NCCS, Pune) by co-transfecting with human M1R or M3R or M5R and pGL4.30 (luc2P/NFAT-RE/Hygro; Promega Corp,) in 96 well format. The transfected cells were incubated at 37° C. in tissue culture incubator with 5% CO2 for 14-16 hours. To determine the if the test compounds are agonist, the transfected cells were treated with either 20 μl/well of carbamoyl choline (as a positive control) at various concentrations (10000 nM to 0.01 nM) or with various concentrations of test compounds (in triplicates) and were further incubated for 12 hrs in a humidified tissue culture incubator at 37° C. with 5% CO2. For antagonist mode assay, test compound incubation was followed by addition of 20 μl of 7 μM carbamoylcholine (agonist) to the plate. Following 12-14 hrs of drug treatment, media from the plate was aspirated and 100 μl of sodium luciferin solution (10 mg/ml) was added and luminescence per well was recorded using luminescence plate reader (BMG Labtech).

human M1R = biological target: T3, human M1R (Homo sapiens, UniProt P11229); experiment: NFAT-luciferase assay, M1; format: cell-based; details: antagonist
T3 construct: expressed in transfected cells; host or cells: HEK-293T
T3 sequence (P11229 1-460): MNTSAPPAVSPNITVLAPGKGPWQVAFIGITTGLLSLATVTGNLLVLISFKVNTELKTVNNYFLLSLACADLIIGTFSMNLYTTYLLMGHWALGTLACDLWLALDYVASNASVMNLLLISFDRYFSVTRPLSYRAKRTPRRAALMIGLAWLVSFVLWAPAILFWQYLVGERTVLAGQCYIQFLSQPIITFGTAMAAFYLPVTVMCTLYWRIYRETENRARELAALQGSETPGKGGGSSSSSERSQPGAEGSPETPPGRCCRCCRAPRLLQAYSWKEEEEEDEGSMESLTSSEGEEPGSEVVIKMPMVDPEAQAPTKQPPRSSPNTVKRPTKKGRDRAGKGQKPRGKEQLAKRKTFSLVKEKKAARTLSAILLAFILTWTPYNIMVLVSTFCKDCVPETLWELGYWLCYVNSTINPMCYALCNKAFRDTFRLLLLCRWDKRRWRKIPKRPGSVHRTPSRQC
Description: as §1

[1] = test system: Scopolamine induced memory deficit; experiment: Novel object recognition (NOR) test, scopolamine induced memory deficit; format: in vivo, mice; details: scopolamine alone 0.5 mg/kg i.p., vs vehicle, p<0.05
Description: (§2) All animal experiments and procedures were executed in accordance with the guidelines established in the guide for the care and use of laboratory animals and were approved by the institutional animal ethics committee (IAEC) of CSIR-Central Drug Research Institute, Lucknow, India. In this study, male C57BL/6J mice (6-8 weeks old) weighing 22-25 g were used. They were housed on a 12-h light/dark cycle (lights on at 8.00 am) and food and water were provided ad libitum. Animals were acclimatized to the experimental room 30 minutes prior to the beginning of behavioral procedures. For experimental purpose, animals were randomly divided into four groups: vehicle, RG-02, scopolamine and scopolamine along with RG-02. In scopolamine along with RG-02 group, RG-02 (10 mg/kg, i.p) was injected thirty minutes prior to the scopolamine (0.5 mg/kg, i.p.) injections.
The NOR test was performed according to the protocol introduced by Ennaceur and Delacour (Ennaceur & Delacour, 1988) with slight modification.
The NOR task procedure consisted of three sessions—[…], familiarization and test session. During habituation session, the mouse was placed in an open field (Square box of 40×40×40 cm), facing the wall of the arena, and allowed to explore the entire arena for 10 minutes. Following habituation period of 10 minutes, the mouse was returned to its home cage.
Between every […] session, the whole arena was cleaned with 10% ethanol to reduce olfactory cues. […] During this session, the test animal was placed in the arena and was allowed to explore the entire arena with familiar and novel object, and its activity was also video recorded. To determine the retention of object memory, the recorded videos of test session were analyzed by independent observer who was unknown to treatment of mice to calculate the time spent in exploring both objects. Data are presented as % time of exploration of familiar or novel object, and discrimination index was calculated as per following equation: (Tn−Tf)/Tt: Discrimination Index […]

[2] = test system: Scopolamine induced memory deficit; experiment: Morris water maze (MWM) test, scopolamine induced learning deficit; format: in vivo, mice; details: scopolamine alone 0.5 mg/kg i.p.
Description: as §2
The Morris water maze (MWM) test was performed according to Morris 1984, with slight modifications. Circular pool of dimensions-100 cm diameter and 45 cm depth, which was filled up to 25 cm from bottom with white colour water. Temperature of water was adjusted to 24-25° C. Pool was divided into four quadrants and a square platform of 10×10 cm in was placed into the tank at a fixed location in the centre of one of the four imaginary quadrants. Training sessions were conducted for 3 consecutive days and on 4th day a probe trial was performed. During training session, mouse was gently placed into the water facing the edge of the pool of one of the quadrant. If the mouse was able to find the platform before the 60 sec cut-off, it was allowed to stay over the platform for 5 more seconds followed by returning to its home cage. […] Total three trials/day were run for each mouse with minimum interval of 10-15 minutes between two trials, and latency to reach the platform was calculated. On the fourth day, for the probe trial, the platform was removed and the time spent in respective quadrant was calculated.

[3] = M3, antagonist, N.A. = not active, read-out: pIC50/pEC50 (Mean ± SEM) M3 (converted)

T2 sequence (P20309 whole entry): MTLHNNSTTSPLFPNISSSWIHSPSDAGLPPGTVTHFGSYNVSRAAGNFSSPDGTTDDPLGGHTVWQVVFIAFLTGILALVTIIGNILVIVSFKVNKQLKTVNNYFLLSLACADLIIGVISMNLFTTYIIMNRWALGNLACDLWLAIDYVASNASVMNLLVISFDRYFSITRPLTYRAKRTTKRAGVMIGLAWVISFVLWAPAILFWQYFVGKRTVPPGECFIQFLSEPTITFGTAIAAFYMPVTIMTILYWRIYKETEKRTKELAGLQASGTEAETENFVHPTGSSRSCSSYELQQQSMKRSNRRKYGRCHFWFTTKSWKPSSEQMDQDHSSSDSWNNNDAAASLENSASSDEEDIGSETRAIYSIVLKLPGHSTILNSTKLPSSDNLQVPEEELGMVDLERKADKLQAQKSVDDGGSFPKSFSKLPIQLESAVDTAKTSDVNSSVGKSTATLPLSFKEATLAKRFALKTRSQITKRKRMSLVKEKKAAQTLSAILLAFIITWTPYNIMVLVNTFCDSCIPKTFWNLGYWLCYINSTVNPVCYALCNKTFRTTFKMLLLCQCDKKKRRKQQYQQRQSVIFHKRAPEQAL

Compound: CCOC(=O)[C@@H]1c2ccccc2[C@@H]2[C@H](S(=O)(=O)c3ccccc3)C[C@@H]3C(=O)CCC[C@H]3N12 [RG-05, (4aS,6R,6aR,11S,12aR)-ethyl 4-oxo-6-(phenylsulfonyl)-1,2,3,4,4a,5,6,6a,11,12a-decahydroisoindolo[2,1-a]quinoline-11-carboxylate]
IC50 (human M2R): 2160 nM

Compound: O=C1CCC[C@@H]2[C@@H]1C[C@@]1(S(=O)(=O)c3ccccc3)C(=O)[C@@H]3c4ccccc4[C@H]1N32 [(−)-RG-02, (−)-(4aS,6S,6aR,11S,12aR)-6-(phenylsulfonyl)-1,2,3,4a,5,6,6a,12a-octahydro-6,11-methanoisoindolo[2,1-a]quinoline-4,13(11H)-dione]
pIC50/pEC50 (Mean ± SEM) M2 (human M2R): 8.38 ± 0.35 (agonist)

antagonist activity at M3 receptor (in words) (human M3R): high affinity antagonist of M3 receptor
IC50 (human M3R; [3]): 0.107 nM
IC50 (human M1R; M1, N.A. = not active, read-out: pIC50/pEC50 (Mean ± SEM) M1 (converted)): 871 nM
IC50 (human M1R; read-out: IC50 at M1 receptor): ≤ 1000 nM
Compound: Cc1ccc(S(=O)(=O)[C@]23CC4=C(OS(=O)(=O)C(F)(F)F)CCC[C@H]4N4[C@H](C2=O)c2ccccc2[C@@H]43)cc1 [RG-13, (6S,6aR,11S,12aR)-13-oxo-6-tosyl-1,2,3,5,6,6a,11,12a-octahydro-6,11-methanoisoindolo[2,1-a]quinolin-4-yl trifluoromethanesulfonate]
selectivity among muscarinic receptors (in words) (human M3R): nonselective muscarinic receptor antagonist

Compound: Cc1ccc(S(=O)(=O)[C@]23C[C@H]4C(=O)CC[C@H]4N4[C@H](C2=O)c2ccccc2[C@@H]43)cc1 [RG-09, (3aR,5S,5aR,10S,11aR)-5-tosyl-3a,4,5,5a,10,11a-hexahydro-1H-5,10-methanocyclopenta[5,6]pyrido[2,1-a]isoindole-3,12(2H)-dione]
antagonist activity at M3 receptor (in words) (human M3R): high affinity antagonist of M3 receptor
selectivity among muscarinic receptors (in words) (human M3R): selective M3 muscarinic receptor antagonist
IC50 (human M3R; as worded in closing text, read-out: IC50 activity, M3 muscarinic receptor antagonist (converted)): 0.102 nM
effectiveness relative to known drug darifenacin at M3 (human M3R): tenfold more effective

Compound: Cc1ccc(S(=O)(=O)[C@]23C[C@@H]4C(=O)CCC[C@H]4N4[C@H](C2=O)c2ccccc2[C@@H]43)cc1 [RG-06, (4aS,6S,6aR,11S,12aR)-6-tosyl-1,2,3,4a,5,6,6a,12a-octahydro-6,11-methanoisoindolo[2,1-a]quinoline-4,13(11H)-dione]
antagonist activity at M3 receptor (in words) (human M3R): high affinity antagonist of M3 receptor
selectivity among muscarinic receptors (in words) (human M3R): selective M3 muscarinic receptor antagonist
IC50 (human M3R; [3]): 0.129 nM
IC50 activity, M3 muscarinic receptor antagonist (human M3R; as worded in closing text): 9.89
effectiveness relative to known drug darifenacin at M3 (human M3R): tenfold more effective

Compound: COC(=O)[C@@H]1c2ccccc2[C@@H]2[C@H](S(=O)(=O)c3ccccc3)C[C@@H]3C(=O)CCC[C@H]3N12 [RG-04, (4aS,6R,6aR,11S,12aR)-methyl 4-oxo-6-(phenylsulfonyl)-1,2,3,4,4a,5,6,6a,11,12a-decahydroisoindolo[2,1-a]quinoline-11-carboxylate]
IC50 (human M2R): 566 nM

Compound: CN1[C@@H]2C[C@@H](OC(=O)[C@H](CO)c3ccccc3)C[C@H]1[C@@H]1O[C@@H]12 [scopolamine, reference compound]
exploration time for the novel object [1]: marked reduction in the exploration time for the novel object
latency to reach the platform ([2]; Day-3): increased latency to reach the platform
time in quadrant with platform (probe trial) ([2]; vs vehicle or RG-02): spent lesser time in quadrant with platform

Source: patent US11065235B2, “Substituted methanopyrido [2, 1-a] isoindolones as mAChR modulators for treating various associated pathophysiological conditions and process for preparation thereof” (COUNCIL OF SCIENTIFIC & INDUSTRIAL RESEARCH, priority 2017, dated 2021)
